# Results published in ChEMBL document CHEMBL1135688, “Pharmacophore model of drugs involved in P-glycoprotein multidrug resistance: explanation of structural variety (hypothesis)” (J Med Chem, 2002).
# Target: T1, ATP-dependent translocase ABCB1 (Homo sapiens, UniProt P08183)
# Assay: Concentration required for 50% inhibition at binding site of human P-Glycoprotein (P-gp) in one-affinity model
# T1 sequence (P08183 whole entry): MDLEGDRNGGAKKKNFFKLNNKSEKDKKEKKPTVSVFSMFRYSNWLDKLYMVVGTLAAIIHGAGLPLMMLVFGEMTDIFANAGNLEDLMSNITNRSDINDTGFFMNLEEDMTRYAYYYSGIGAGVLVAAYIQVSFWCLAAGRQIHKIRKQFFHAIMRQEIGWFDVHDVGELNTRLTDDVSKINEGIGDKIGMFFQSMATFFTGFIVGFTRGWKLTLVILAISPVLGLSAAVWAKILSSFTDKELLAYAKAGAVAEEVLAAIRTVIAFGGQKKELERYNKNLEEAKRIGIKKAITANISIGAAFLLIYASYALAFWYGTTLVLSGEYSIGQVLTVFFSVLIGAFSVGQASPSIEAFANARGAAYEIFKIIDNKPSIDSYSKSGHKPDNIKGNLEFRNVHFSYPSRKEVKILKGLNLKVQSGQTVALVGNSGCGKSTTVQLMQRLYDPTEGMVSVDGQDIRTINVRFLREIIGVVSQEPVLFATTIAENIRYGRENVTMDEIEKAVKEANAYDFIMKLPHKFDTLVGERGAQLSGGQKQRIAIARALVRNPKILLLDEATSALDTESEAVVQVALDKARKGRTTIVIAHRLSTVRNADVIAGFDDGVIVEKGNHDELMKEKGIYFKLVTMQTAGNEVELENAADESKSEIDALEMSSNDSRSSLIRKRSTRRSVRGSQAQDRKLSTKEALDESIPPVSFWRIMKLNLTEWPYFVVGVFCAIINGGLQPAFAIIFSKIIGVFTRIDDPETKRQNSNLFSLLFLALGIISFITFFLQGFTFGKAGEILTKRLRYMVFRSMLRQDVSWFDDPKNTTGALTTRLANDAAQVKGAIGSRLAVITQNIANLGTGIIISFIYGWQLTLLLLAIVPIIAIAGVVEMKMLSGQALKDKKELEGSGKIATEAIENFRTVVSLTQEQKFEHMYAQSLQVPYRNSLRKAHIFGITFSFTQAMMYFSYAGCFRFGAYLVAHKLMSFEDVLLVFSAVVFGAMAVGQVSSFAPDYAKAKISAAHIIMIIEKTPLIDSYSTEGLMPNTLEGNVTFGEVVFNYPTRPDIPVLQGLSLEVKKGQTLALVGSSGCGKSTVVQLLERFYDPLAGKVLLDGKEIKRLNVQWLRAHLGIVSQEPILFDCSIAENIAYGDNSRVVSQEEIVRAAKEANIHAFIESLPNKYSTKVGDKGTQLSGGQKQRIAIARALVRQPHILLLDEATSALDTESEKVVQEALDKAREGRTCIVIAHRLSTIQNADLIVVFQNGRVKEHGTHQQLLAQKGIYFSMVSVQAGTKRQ
row,SMILES,IC50 [µM]
1,COC(=O)c1ccccc1-c1c2ccc(=N)cc-2oc2cc(N)ccc12,0.5
2,COc1ccc(CCNCCCC(C#N)(c2ccc(OC)c(OC)c2)C(C)C)cc1OC (racemic) [NORVERAPAMIL],4.24
3,COc1ccc2[nH]c([S+]([O-])Cc3ncc(C)c(OC)c3C)nc2c1 (stereo in doubt; form 1) [OMEPRAZOLE],89
4,COc1ccc2[nH]c([S+]([O-])Cc3ncc(C)c(OC)c3C)nc2c1 (stereo in doubt; form 2) [OMEPRAZOLE],97.2
5,COc1ccc2[nH]c([S+]([O-])Cc3ncc(C)c(OC)c3C)nc2c1 (stereo in doubt; form 3) [OMEPRAZOLE],91.2

# Target: T1, ATP-dependent translocase ABCB1
# Assay: Fraction of high affinity at binding site of human P-Glycoprotein (P-gp) in two-affinity model
row,SMILES,Binding site fraction
1,COC(=O)c1ccccc1-c1c2ccc(=N)cc-2oc2cc(N)ccc12,0.7
2,CN(C)CCCN1c2ccccc2Sc2ccc(Cl)cc21 [CHLORPROMAZINE],0.8
3,O=C(CCCN1CCC(O)(c2ccc(Cl)cc2)CC1)c1ccc(F)cc1 [HALOPERIDOL],0.3
4,COCCc1ccc(OCC(O)CNC(C)C)cc1 (stereo not given) [METOPROLOL],0.2

# Results, then the compound that gave them:
row,Binding site fraction,SMILES
1,0.2,CC(C)NCC(O)COc1ccc(CCNC(=O)NC(C)C)cc1 (stereo not given) [PAFENOLOL]
2,0.5,CC(C)NCC(O)COc1cccc2ccccc12 (stereo not given) [PROPRANOLOL]
3,0.2,C=C[C@H]1C[N@@]2CC[C@H]1C[C@@H]2[C@@H](O)c1ccnc2ccc(OC)cc12 [QUINIDINE]
4,0.2,C=C[C@H]1C[N@@]2CC[C@H]1C[C@H]2[C@H](O)c1ccnc2ccc(OC)cc12 [QUININE]
5,0.4,CC[C@]1(O)C[C@@H]2CN(CCc3c([nH]c4ccccc34)[C@@](C(=O)OC)(c3cc4c(cc3OC)N(C)[C@H]3[C@@](O)(C(=O)OC)[C@H](OC(C)=O)[C@]5(CC)C=CCN6CC[C@]43[C@@H]65)C2)C1 [VINBLASTINE]

# Target: T1, ATP-dependent translocase ABCB1
# Assay: High affinity constant at binding site of human P-Glycoprotein (P-gp) in two-affinity model
row,SMILES,Ki [µM]
1,COC(=O)c1ccccc1-c1c2ccc(=N)cc-2oc2cc(N)ccc12,0.1
